pIC50: −log10 of the molar value.
Assays:
PDE4 = PDE4 enzyme inhibition (IC50), enzyme from cytosolic preparation of U937 cell line; assay type: biochemical, human; conditions: inhibitory activity on PDE4; substrate cAMP 0.25 μM; reaction stopped after 10 minutes
Experimental: The capacity of the compounds of formula (I) of the invention to inhibit cyclic nucleotide phosphodiesterases is evaluated by measuring their IC50 (concentration required to inhibit 50% of the enzymatic activity).
The type 4 phosphodiesterases are obtained from a cytosolic preparation extracted from a cell line U937 of human origin according to the method adapted from T. J. Torphy et al., J. Pharm. Exp. Ther. (1992), 263: 1195-1205.
The measurement of the enzymatic activity of the various types of PDE, and in particular the PDE4, is carried out according to a method adapted from W. J. Thompson et al., Advances in Cyclic Nucleotide Research, (1979) Vol. 10: 69-92, ed. G. Brooker et al. Raven Press, NY.
The substrate used is cGMP for PDE1 and PDE5 and cAMP for PDE 3 and PDE 4. The substrate concentration was 0.2 μM for PDE 1, PDE 3 and PDE 5, 0.25 μM for PDE 4.
The enzymatic reaction was stopped after 1 hour for PDE 1, PDE 3 and PDE 5 and 10 minutes for PDE 4.
The following table illustrates the inhibitory activity on PDE4 of some of the compounds of formula (I): […]

[1] = dose of 20 mg as a single intake; cited from earlier work

pIC50 (PDE4) | SMILES | undesirable effects [1]
5.89 | CC(=O)N(C)c1ccc2c(c1)c(=O)n(Cc1ccc(C#N)cc1)c1nnc(C3CCCC3)n21 [Example 8, 4-(4-cyanobenzyl)-1-cyclopentyl-7-(N-methylacetamido)-4H-[1,2,4]triazolo[4,3-a]quinazolin-5-one] | –
7.21 | O=c1c2cc(Br)ccc2n2c(C3CCCC3)nnc2n1Cc1ccccc1 [Example 10, 4-benzyl-7-bromo-1-cyclopentyl-4H-[1,2,4]triazolo[4,3-a]quinazolin-5-one] | –
8.70 | CNc1ccc2c(c1)c(=O)n(Cc1ccc(C#N)cc1)c1nnc(C3CCCC3)n21 [Example 9, 4-(4-cyanobenzyl)-1-cyclopentyl-7-(N-methylamino)-4H-[1,2,4]triazolo[4,3-a]quinazolin-5-one] | –
5.57 | CC(=O)N(C)c1ccc2c(c1)c(=O)n(Cc1ccccc1)c1nnc(C3CCCC3)n21 [Example 5, 4-benzyl-1-cyclopentyl-7-(N-methylacetamido)-4H-[1,2,4]triazolo[4,3-a]quinazolin-5-one] | –
4.51 | CC(=O)Nc1ccc2c(c1)c(=O)n(Cc1ccccc1)c1nnc(C)n21 [Example 4, 7-acetamido-4-benzyl-1-methyl-4H-[1,2,4]triazolo[4,3-a]quinazolin-5-one] | –
7.12 | CNc1ccc2c(c1)c(=O)n(Cc1ccccc1)c1nnc(C3CCCC3)n21 [Example 7, 4-benzyl-1-cyclopentyl-7-methylamino-4H-[1,2,4]triazolo[4,3-a]quinazolin-5-one] | –
6.00 | Cc1nnc2n(Cc3ccccc3)c(=O)c3cc(Br)ccc3n12 [Example 11, 4-benzyl-7-bromo-1-methyl-4H-[1,2,4]triazolo[4,3-a]quinazolin-5-one] | –
5.07 | CC(=O)Nc1ccc2c(c1)c(=O)n(Cc1ccccc1)c1nnc(C3CCCC3)n21 [Example 2, 7-acetamido-4-benzyl-1-cyclopentyl-4H-[1,2,4]triazolo[4,3-a]quinazolin-5-one] | –
– | COc1ccc([C@]2(C#N)CC[C@@H](C(=O)O)CC2)cc1OC1CCCC1 [Ariflo] | significant undesirable effects, such as nausea and vomiting
